In patent publication US9126985B2, “Tetra- and pentasubstituted benzimidazolium compounds” (Boehringer Ingelheim International GmbH, priority 2013, dated 2015):

How the values were obtained:
[1] = molecular target: T1, ENaC (Epithelial Sodium Channel) (Mus musculus, UniProt Q61180+Q9WU38+Q9WU39); assay: Ussing Chamber assay: inhibition of amiloride sensitive short circuit current in M-1 cells; assay type: cell-based; details: Mouse kidney M-1 cells on transwell filters, compound added to apical solution, 37° C.
T1 construct: Mouse kidney M-1 cells were cultivated in DMEM containing 5% FCS and 5 μM dexamethasone; endogenous in cells; host or cells: mouse kidney M-1 cells
T1 sequence (Q61180 1-699): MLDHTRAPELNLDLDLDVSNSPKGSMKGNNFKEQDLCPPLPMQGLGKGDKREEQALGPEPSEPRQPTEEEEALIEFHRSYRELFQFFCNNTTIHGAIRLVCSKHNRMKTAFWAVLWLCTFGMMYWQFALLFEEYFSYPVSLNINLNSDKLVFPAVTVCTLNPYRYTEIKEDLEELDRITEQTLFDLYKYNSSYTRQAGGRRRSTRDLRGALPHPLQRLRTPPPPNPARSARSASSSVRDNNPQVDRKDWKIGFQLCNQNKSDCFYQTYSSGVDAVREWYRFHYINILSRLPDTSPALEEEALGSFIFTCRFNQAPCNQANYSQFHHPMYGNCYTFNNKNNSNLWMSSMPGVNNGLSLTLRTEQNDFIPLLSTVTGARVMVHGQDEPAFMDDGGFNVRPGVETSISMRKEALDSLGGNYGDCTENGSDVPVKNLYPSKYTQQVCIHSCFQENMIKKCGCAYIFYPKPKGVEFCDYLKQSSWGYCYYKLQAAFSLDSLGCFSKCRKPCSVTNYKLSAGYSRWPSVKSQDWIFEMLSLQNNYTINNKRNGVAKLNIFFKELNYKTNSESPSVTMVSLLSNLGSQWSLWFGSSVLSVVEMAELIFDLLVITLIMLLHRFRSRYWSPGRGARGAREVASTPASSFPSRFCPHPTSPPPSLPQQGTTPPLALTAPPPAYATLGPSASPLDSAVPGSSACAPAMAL
T1 sequence (Q9WU38 1-638): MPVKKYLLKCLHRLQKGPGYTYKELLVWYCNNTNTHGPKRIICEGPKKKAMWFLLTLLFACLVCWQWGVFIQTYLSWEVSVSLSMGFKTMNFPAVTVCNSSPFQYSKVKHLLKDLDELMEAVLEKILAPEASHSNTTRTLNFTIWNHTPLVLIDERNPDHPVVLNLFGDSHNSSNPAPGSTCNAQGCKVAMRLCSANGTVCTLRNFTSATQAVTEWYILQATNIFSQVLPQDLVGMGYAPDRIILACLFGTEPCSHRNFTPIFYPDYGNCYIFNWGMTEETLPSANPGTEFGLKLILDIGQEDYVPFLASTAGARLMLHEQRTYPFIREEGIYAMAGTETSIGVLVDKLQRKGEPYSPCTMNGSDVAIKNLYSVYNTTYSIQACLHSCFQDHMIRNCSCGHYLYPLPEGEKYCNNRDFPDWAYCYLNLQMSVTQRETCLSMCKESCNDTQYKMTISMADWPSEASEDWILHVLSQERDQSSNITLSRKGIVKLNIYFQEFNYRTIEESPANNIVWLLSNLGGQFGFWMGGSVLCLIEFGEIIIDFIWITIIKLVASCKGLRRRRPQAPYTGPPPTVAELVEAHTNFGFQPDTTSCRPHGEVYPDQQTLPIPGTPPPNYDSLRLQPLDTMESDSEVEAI
T1 sequence (Q9WU39 1-655): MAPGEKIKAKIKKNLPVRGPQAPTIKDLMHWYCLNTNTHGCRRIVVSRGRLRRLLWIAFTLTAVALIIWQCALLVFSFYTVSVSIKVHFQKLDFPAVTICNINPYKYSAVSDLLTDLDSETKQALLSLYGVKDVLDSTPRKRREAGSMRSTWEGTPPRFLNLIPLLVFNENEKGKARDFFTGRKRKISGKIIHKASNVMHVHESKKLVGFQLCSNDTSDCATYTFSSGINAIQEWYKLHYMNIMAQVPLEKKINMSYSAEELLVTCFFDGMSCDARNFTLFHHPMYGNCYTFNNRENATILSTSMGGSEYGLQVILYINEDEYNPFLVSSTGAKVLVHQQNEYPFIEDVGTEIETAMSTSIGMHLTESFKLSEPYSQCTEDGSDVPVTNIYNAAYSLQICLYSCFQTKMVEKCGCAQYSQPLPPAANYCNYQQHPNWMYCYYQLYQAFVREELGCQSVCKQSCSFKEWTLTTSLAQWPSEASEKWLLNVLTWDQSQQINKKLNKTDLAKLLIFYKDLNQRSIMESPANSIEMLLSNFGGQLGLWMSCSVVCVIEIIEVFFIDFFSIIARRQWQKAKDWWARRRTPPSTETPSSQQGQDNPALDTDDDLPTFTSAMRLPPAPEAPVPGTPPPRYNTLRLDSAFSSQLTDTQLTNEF
Procedure: Mouse kidney M-1 cells were cultivated in DMEM containing 5% FCS and 5 μM dexamethasone for 10 to 12 days on polyester transwell filters. Filters were inserted into a teflon-coated well-plate which fit into the ussing chamber system. Prior to measurement the medium of M-1 cells was replaced with Caco-2 transport buffer (Invitrogen, Germany). During measurements, the Ussing chamber temperature was kept at 37° C. Short circuit currents (I_sc) were measured in the voltage-clamp mode with the software package Lab View for data acquisition and analysis. The transepithelial electrical resistance (TEER) was determined by the application of voltage steps of ±5 mV every 5 sec. Compounds were administered at a final concentration of 3 μM or at increasing concentrations (1-3-10 μM) to the apical solution. At the end of each experiment the amiloride sensitive I_SC was measured by adding 3 μM amiloride to the apical compartment. Results are expressed as inhibition in percent of the amiloride effect or as IC50.
With the example compounds given above, the following IC50 values were determined in the Ussing Chamber assay: […]

[2] = Permeability in CALU-3 cells; assay type: in vitro ADME; details: human, CALU-3 cell monolayers, pH 7.4, 37° C., 10 μM compound; for Papp A→B at 90 min, 10 μM: apical-to-basal; for Papp B→A at 90 min, 10 μM: basal-to-apical
Procedure: Permeability in CALU-3 Cells:
Permeability measurements across polarized, confluent CALU-3 cell monolayers grown on permeable filter supports are used to provide information on the potential of a compound to pass the lung epithelium. Apparent permeability coefficients (Papp) of the compounds across the CALU-3 cell monolayers are measured (pH 7.4, 37° C.) in apical-to-basal (AB) and basal-to-apical (BA) transport direction.
CALU-3 cells (1-2×10^5 cells/1 cm^2 area) are seeded on filter inserts (Costar transwell polycarbonate filters, 0.4 μm pore size) and cultured (for 10-12 days DMEM) until tight monolayers are formed. Compounds of interest are dissolved in appropriate solvent (DMSO, 10 mM stock solution). Stock solutions are diluted with HTP-4 buffer (128.13 mM NaCl, 5.36 mM KCl, 1 mM MgSO4, 1.8 mM CaCl2, 4.17 mM NaHCO3, 1.19 mM Na2HPO4×7H2O, 0.41 mM NaH2PO4×H2O, 15 mM HEPES, 20 mM glucose, 0.25% BSA, pH 7.4) to prepare the transport solutions (10 μM compound, final DMSO<=0.5%). The transport solution (TL) is applied to the apical or basolateral donor side for measuring A-B or B-A permeability (3 filter replicates), respectively. The receiver side contains the same buffer as the donor side. After 30 min of accommodation, samples are collected at the start t0=0 min and at the end of the experiment tn=90 min from the donor and at 0, 30, 60, and 90 min also from the receiver chamber. Volume removed is replenished by HTP-4 buffer. The compound concentration in the samples is measured by HPLC-MS/MS or scintillation counting. The permeability coefficient (Papp) and efflux ratio are calculated according to: Papp [cm/s]=(concentration receiver [nM]*volume receiver [mL]/time interval [sec])*(1/filter area)*(1/donor concentration [nM])
With example compounds given above, the following permeability values were determined in the CALU-3 cells assay: […]

IC50 [1] [nM]	Papp A→B at 90 min, 10 μM [2] [×10⁻⁶ cm/s]	Papp B→A at 90 min, 10 μM [2] [×10⁻⁶ cm/s]	SMILES
1	1.3	0.2	CCn1c(CNC(=O)c2nc(Br)c(N)nc2N)[n+](CCOCCOCCO)c2ccc(O)cc21.O=C([O-])C(F)(F)F [Example 2.1]
10	–	–	CCNC(=O)COc1ccc2c(c1)n(C1CCN(C(C)=O)CC1)c(CNC(=O)c1nc(Cl)c(N)nc1N)[n+]2CC [Example 3.1]
13	–	–	CCn1c(CNC(=O)c2nc(Cl)c(N)nc2N)[n+](CC2CCOCC2)c2cc(Cl)c(N(CCO)CCO)cc21 [Example 1.1]
1	0.5	0.3	CCn1c(CNC(=O)c2nc(Cl)c(N)nc2N)[n+](CCOCCOCCO)c2ccc(O)cc21 [Example 1.2]
31	–	–	CCn1c(CNC(=O)c2nc(Cl)c(N)nc2N)[n+](CCCC#N)c2ccc(OCCCP(=O)(O)O)cc21 [Example 4.1]
3	–	–	CC[n+]1c(CNC(=O)c2nc(Cl)c(N)nc2N)n(CC2CCN(C(=O)COCCOC)CC2)c2cc([O-])ccc21 [Example 6.1]

SMILES	IC50 [1] [nM]	Papp A→B at 90 min, 10 μM [2] [×10⁻⁶ cm/s]	Papp B→A at 90 min, 10 μM [2] [×10⁻⁶ cm/s]
CCOP(=O)(O)CCCOc1ccc2c(c1)n(CC)c(CNC(=O)c1nc(Cl)c(N)nc1N)[n+]2CC1CCOCC1 [Example 5.1]	8	–	–
C=CC[n+]1c(CNC(=O)c2nc(Br)c(N)nc2N)n(CC)c2cc(OCCCP(=O)(OCC)OCC)ccc21 [Example 2.2]	2	–	–
